Converted amounts (≈) assume the structure as drawn. Like-named read-outs stand apart in the source and are kept apart here. Peptide text beside a SMILES is read from it.
Assays:
[1] = system: Enterobacter spp. isolates (Enterobacter aerogenes and E. cloacae, n = 102); test: organism not typed
Experimental: (§1) Comparator antibiotics were supplied by Micromyx, and stock solutions were prepared on the first day of testing using solvents recommended by CLSI (1). Stock solutions of all compounds were made at 40× the final testing concentration and stored at −80° C. prior to testing. Information regarding compound source, catalog and lot number, testing concentrations and drug diluent for the comparators and test agent are detailed below in Table 3.
(§2) The test organisms evaluated in this study consisted of clinical isolates from the Micromyx Repository and reference isolates from the American Type Culture Collection (ATCC; Manassas, VA). The clinical isolates were obtained from USA hospitals. Upon initial receipt at Micromyx, the organisms were sub-cultured onto an appropriate agar medium. Following incubation, colonies were harvested from these plates and cell suspensions prepared and frozen at −80° C. with a cryoprotectant. Prior to testing, the isolates were streaked from frozen vials onto Trypticase Soy Agar with 5% sheep blood (Becton Dickenson [BD]; Sparks, MD; Lot Nos. 7173618, 7166759, 7208688, 72144895, 7228505 and Remel Lenexa, KS Lot No. 212574). Plates were incubated at 35° C. overnight.
(§3) Mueller Hinton II broth (MHB II; BD; Lot Nos. 6258541 and 7143896) was used for MIC testing of aerobic organisms.
(§4) MIC values were determined using a broth microdilution procedure described by CLSI (1, 3). Automated liquid handlers (Multidrop 384, Labsystems, Helsinki, Finland; Biomek 2000 and Biomek FX, Beckman Coulter, Fullerton CA) were used to conduct serial dilutions and liquid transfers.
(§5) To prepare the drug mother plates, which would provide the serial drug dilutions for the replicate daughter plates, the wells of columns 2-12 of standard 96-well microdilution plates (Costar 3795) were filled with 150 μl of the designated diluent for each row of drug. The test articles and comparator compounds (300 μl at 40× the highest concentration to be tested) were dispensed into the appropriate wells in column 1. The Biomek 2000 was then used to make 2-fold serial dilutions in the mother plates from column 1 through column 11. The wells of Column 12 contained no drug and served as the organism growth control wells for the assay.
(§6) The daughter plates were loaded with 185 μL per well of MHB II using the Multidrop 384. The daughter plates were completed on the Biomek FX instrument which transferred 5 μL of drug solution from each well of a mother plate to the corresponding well of each daughter plate in a single step. A standardized inoculum of each test organism was prepared per CLSI methods (1). The inoculum for each organism was dispensed into sterile reservoirs divided by length (Beckman Coulter), and the Biomek 2000 was used to inoculate the plates. Daughter plates were placed on the Biomek 2000 work surface in reverse orientation so that inoculation took place from low to high drug concentration.
(§7) Plates were stacked 3-4 high, covered with a lid on the top plate, placed in plastic bags, and incubated at 35° C. for 16 to 20 hrs. Following incubation, the microplates were removed from the incubator and viewed from the bottom using a plate viewer. […] The MIC was read and recorded as the lowest concentration of drug that inhibited visible growth of the organism.
(§8) Clinical breakpoints to determine percent resistance within a given organism group were obtained from CLSI (3), with the exception of colistin for K. pneumoniae, Enterobacter spp., and E. coli, which are only available from EUCAST.

[2] = system: Escherichia coli isolates (n = 101)
Experimental: as §1, §2, §3, §4, §5, §6, §7, §8

[3] = system: Pseudomonas aeruginosa isolates (n = 109)
Experimental: as §1, §2, §3, §4, §5, §6, §7, §8

[4] = system: Acinetobacter spp. isolates (n = 104)
Experimental: as §1, §2, §3, §4, §5, §6, §7, §8

[5] = system: Klebsiella pneumoniae isolates (n = 101)
Experimental: as §1, §2, §3, §4, §5, §6, §7, §8

[6] = system: Acinetobacter baumannii ATCC BAA-1797 (MDR); assay type: cell-based; settings: Acinetobacter baumannii ATCC BAA-1797 (MDR)
How it was run: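 CLSI broth microdilution in Mueller Hinton II broth with 0.002% polysorbate 80; peptides in 2-fold serial dilution, highest final test concentration 32 mcg/mL. Inoculum approx. 5×10^5 CFU/mL, incubated 35° C for 16 to 20 hrs. MIC taken as lowest peptide concentration preventing visible growth.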

[7] = system: Escherichia coli ATCC 25922 (QC); settings: E. coli ATCC 25922; established CLSI QC range; cited from earlier work
[8] = Pseudomonas aeruginosa (n = 109)
[9] = Klebsiella pneumoniae (n = 101)

Colistin [reference compound]
MIC50 ([1]; Enterobacter spp. (n = 102)): 0.12 µg/mL
MIC90 ([1]; Enterobacter spp. (n = 102)): 0.25 µg/mL
Mode (MIC) ([1]; Enterobacter spp. (n = 102)): 0.12 µg/mL
% R (percent of isolates resistant) ([1]; Enterobacter spp. (n = 102), CLSI breakpoints, colistin EUCAST): 5.8%
MIC50 ([2]; Escherichia coli (n = 101)): 0.12 µg/mL
MIC90 ([2]; Escherichia coli (n = 101)): 0.12 µg/mL
MIC range ([2]; Escherichia coli (n = 101)): ≤0.03-0.5 ^ μg/mL
Mode (MIC) ([2]; Escherichia coli (n = 101)): 0.12 µg/mL
% R (percent of isolates resistant) ([2]; Escherichia coli (n = 101), CLSI breakpoints, colistin EUCAST): 0%
MIC50 [3, 8]: 0.5 µg/mL
MIC90 [3, 8]: 1 µg/mL
Mode (MIC) [3, 8]: 0.5 µg/mL
% R (percent of isolates resistant) ([3]; Pseudomonas aeruginosa (n = 109), CLSI breakpoints): 7.3%
MIC50 ([4]; Acinetobacter spp. (n = 104)): 0.25 µg/mL
MIC90 ([4]; Acinetobacter spp. (n = 104)): >32 µg/mL
Mode (MIC) ([4]; Acinetobacter spp. (n = 104)): 0.25 µg/mL
% R (percent of isolates resistant) ([4]; Acinetobacter spp. (n = 104), CLSI breakpoints): 20.2%
MIC50 [5, 9]: 0.12 µg/mL
MIC90 [5, 9]: 32 µg/mL
Mode (MIC) [5, 9]: 0.12 µg/mL
% R (percent of isolates resistant) ([5]; Klebsiella pneumoniae (n = 101), CLSI breakpoints, colistin EUCAST): 27.7%
MIC [6]: 0.5 µg/mL
MIC QC range (in parentheses under the MIC) [7]: (0.25-2) μg/mL

CC(C)[C@H](NC(=O)[C@H](Cc1c[nH]c2ccccc12)NC(=O)[C@H](CCCNC(=N)N)NC(=O)[C@H](CCCNC(=N)N)NC(=O)[C@@H](NC(=O)[C@@H](NC(=O)[C@H](CCCNC(=N)N)NC(=O)[C@@H](NC(=O)[C@@H](NC(=O)[C@H](CCCNC(=N)N)NC(=O)[C@H](CCCNC(=N)N)NC(=O)[C@H](Cc1c[nH]c2ccccc12)NC(=O)[C@@H](NC(=O)[C@H](CCCNC(=N)N)NC(=O)[C@H](CCCNC(=N)N)NC(=O)[C@@H](NC(=O)[C@H](CCCNC(=N)N)NC(=O)[C@H](CCCNC(=N)N)NC(=O)[C@@H](NC(=O)[C@H](Cc1c[nH]c2ccccc12)NC(=O)[C@H](CCCNC(=N)N)NC(=O)[C@@H](N)CCCNC(=N)N)C(C)C)C(C)C)C(C)C)C(C)C)C(C)C)C(C)C)C(C)C)C(=O)N[C@@H](CCCNC(=N)N)C(=O)N[C@@H](CCCNC(=N)N)C(N)=O [SEQ ID NO: 1] (H-RRWVRRVRRVWRRVVRVVRRWVRR-NH2)
Mode (MIC) [1]: 16 µg/mL
Mode (MIC) ([2]; isolates (n = 101)): 2 µg/mL
MIC90 ([3]; P. aeruginosa colistin-resistant, n=8): 16 µg/mL (≈ 4.71 µM)
MIC90 [3, 8]: 16 µg/mL (≈ 4.71 µM)
Mode (MIC) [4]: 4 µg/mL
MIC90 ([4]; Acinetobacter colistin-resistant, n=21): 16 µg/mL (≈ 4.71 µM)
MIC90 ([4]; Acinetobacter spp. (n = 104)): 16 µg/mL (≈ 4.71 µM)
MIC90 ([5]; K. pneumoniae colistin-resistant, n=28): 16 µg/mL (≈ 4.71 µM)

Reference: US20240115654A1, “INTRAVENOUS ADMINISTRATION OF ENGINEERED ANTIMICROBIAL AMPHIPHILIC PEPTIDES” (priority 2021, published 2024)
